Results published in ChEMBL document CHEMBL1949518, “Synthesis and biological evaluation of some new 2-pyrazolines bearing benzene sulfonamide moiety as potential anti-inflammatory and anti-cancer agents” (Eur J Med Chem, 2011).

What was measured:
Format in all cases: functional
UACC-257 = assay: Antiproliferative activity against human UACC257 cells assessed as cell growth at 10^-5 M after 48 hrs by SRB assay relative to control; details: UACC-257, 48 h, read-out: Activity
RPMI-8226 = assay: Antiproliferative activity against human RPMI8226 cells assessed as cell growth at 10^-5 M after 48 hrs by SRB assay relative to control; details: RPMI-8226, 48 h, read-out: Activity
SNB-75 = assay: Antiproliferative activity against human SNB75 cells assessed as cell growth at 10^-5 M after 48 hrs by SRB assay relative to control; details: SNB-75, 48 h, read-out: Activity
SF-295 = assay: Antiproliferative activity against human SF295 cells assessed as cell growth at 10^-5 M after 48 hrs by SRB assay relative to control; details: SF-295, 48 h, read-out: Activity
SN12C = assay: Antiproliferative activity against human SN12C cells assessed as cell growth at 10^-5 M after 48 hrs by SRB assay relative to control; details: read-out: Activity
SK-MEL-2 = assay: Antiproliferative activity against human SK-MEL-2 cells assessed as cell growth at 10^-5 M after 48 hrs by SRB assay relative to control; details: SK-MEL-2, 48 h, read-out: Activity
K562 = assay: Antiproliferative activity against human K562 cells assessed as cell growth at 10^-5 M after 48 hrs by SRB assay relative to control; details: K562, 48 h, read-out: Activity
HCT-116 = assay: Antiproliferative activity against human HCT116 cells assessed as cell growth at 10^-5 M after 48 hrs by SRB assay relative to control; details: HCT-116, 48 h, read-out: Activity
SF-539 = assay: Antiproliferative activity against human SF539 cells assessed as cell growth at 10^-5 M after 48 hrs by SRB assay relative to control; details: SF-539, 48 h, read-out: Activity
NCI-H522 = assay: Antiproliferative activity against human NCI-H522 cells assessed as cell growth at 10^-5 M after 48 hrs by SRB assay relative to control; details: NCI-H522, 48 h, read-out: Activity
NCI-H460 = assay: Antiproliferative activity against human NCI-H460 cells assessed as cell growth at 10^-5 M after 48 hrs by SRB assay relative to control; details: NCI-H460, 48 h, read-out: Activity
DU-145 = assay: Antiproliferative activity against human DU145 cells assessed as cell growth at 10^-5 M after 48 hrs by SRB assay relative to control; details: DU-145, 48 h, read-out: Activity
U-251 = assay: Antiproliferative activity against human U251 cells assessed as cell growth at 10^-5 M after 48 hrs by SRB assay relative to control; details: U-251, 48 h, read-out: Activity
UACC-62 = assay: Antiproliferative activity against human UACC62 cells assessed as cell growth at 10^-5 M after 48 hrs by SRB assay relative to control; details: UACC-62, 48 h, read-out: Activity
NCI-H226 = assay: Antiproliferative activity against human NCI-H226 cells assessed as cell growth at 10^-5 M after 48 hrs by SRB assay relative to control; details: NCI-H226, 48 h, read-out: Activity
NCI-H322M = assay: Antiproliferative activity against human NCI-H322M cells assessed as cell growth at 10^-5 M after 48 hrs by SRB assay relative to control; details: read-out: Activity
OVCAR-5 [1] = assay: Antiproliferative activity against human OVCAR5 cells assessed as cell growth at 10^-5 M after 48 hrs by SRB assay relative to control; details: OVCAR-5, 48 h, read-out: Activity
HL-60(TB) = assay: Antiproliferative activity against human HL-60(TB) cells assessed as cell growth at 10^-5 M after 48 hrs by SRB assay relative to control; details: HL-60, 48 h, read-out: Activity
PC-3 = assay: Antiproliferative activity against human PC3 cells assessed as cell growth at 10^-5 M after 48 hrs by SRB assay relative to control; details: PC-3, 48 h, read-out: Activity
Malme-3M = assay: Antiproliferative activity against human MALME-3M cells assessed as cell growth at 10^-5 M after 48 hrs by SRB assay relative to control; details: read-out: Activity
TK-10 = assay: Antiproliferative activity against human TK10 cells assessed as cell growth at 10^-5 M after 48 hrs by SRB assay relative to control; details: TK-10, 48 h, read-out: Activity
MOLT-4 = assay: Antiproliferative activity against human MOLT4 cells assessed as cell growth at 10^-5 M after 48 hrs by SRB assay relative to control; details: MOLT-4, 48 h, read-out: Activity
SF-268 = assay: Antiproliferative activity against human SF268 cells assessed as cell growth at 10^-5 M after 48 hrs by SRB assay relative to control; details: SF-268, 48 h, read-out: Activity
786-0 = assay: Antiproliferative activity against human 786-0 cells assessed as cell growth at 10^-5 M after 48 hrs by SRB assay relative to control; details: 786-0, 48 h, read-out: Activity
HOP-92 = assay: Antiproliferative activity against human HOP92 cells assessed as cell growth at 10^-5 M after 48 hrs by SRB assay relative to control; details: HOP-92, 48 h, read-out: Activity
CCRF-CEM = assay: Antiproliferative activity against human CCRF-CEM cells assessed as cell growth at 10^-5 M after 48 hrs by SRB assay relative to control; details: read-out: Activity
Rattus norvegicus = assay: Antiinflammatory activity in Wistar rat assessed as inhibition of carrageenan-induced paw edema at 20 mg/kg, po administered 30 mins before carrageenan challenge measured after 3 hrs
NCI/ADR-RES = assay: Anticancer activity against human NCI/ADR-RES cells after 48 hrs by SRB assay; details: for CC50: read-out: LC50 (the source's name)
SK-OV-3 = assay: Anticancer activity against human SKOV3 cells after 48 hrs by SRB assay; details: SK-OV-3, 48 h; for CC50: read-out: LC50 (the source's name)
OVCAR-8 = assay: Anticancer activity against human OVCAR8 cells after 48 hrs by SRB assay; details: OVCAR-8, 48 h; for CC50: read-out: LC50 (the source's name)
OVCAR-5 [2] = assay: Anticancer activity against human OVCAR5 cells after 48 hrs by SRB assay; details: OVCAR-5, 48 h
SW-620 = assay: Anticancer activity against human SW620 cells after 48 hrs by SRB assay; details: SW-620, 48 h
HOP-62 = assay: Anticancer activity against human HOP62 cells after 48 hrs by SRB assay; details: HOP-62, 48 h

COc1ccc(C2CC(c3c(O)cc(C)c(Cl)c3C)=NN2c2ccc(S(N)(=O)=O)cc2)cc1 (stereo not drawn)
growth at 10 µM (UACC-257): 103% | growth at 10 µM (RPMI-8226): 63.9% | growth at 10 µM (SNB-75): 85.1% | growth at 10 µM (SF-295): 152% | growth at 10 µM (SN12C): 99.4% | growth at 10 µM (SK-MEL-2): 94.3% | growth at 10 µM (K562): 44.1% | growth at 10 µM (HCT-116): 75.5% | growth at 10 µM (SF-539): 92.3% | growth at 10 µM (NCI-H522): 71.5% | growth at 10 µM (NCI-H460): 62% | growth at 10 µM (DU-145): 92.4% | growth at 10 µM (U-251): 91.3% | growth at 10 µM (UACC-62): 74% | growth at 10 µM (NCI-H226): 98.7% | growth at 10 µM (NCI-H322M): 85.1% | growth at 10 µM (OVCAR-5 [1]): 86.6% | growth at 10 µM (HL-60(TB)): 69.1% | growth at 10 µM (PC-3): 56.2% | growth at 10 µM (Malme-3M): 138% | growth at 10 µM (TK-10): 104% | growth at 10 µM (MOLT-4): 36.5% | growth at 10 µM (SF-268): 76.1% | growth at 10 µM (786-0): 92.5% | growth at 10 µM (HOP-92): 43.3% | growth at 10 µM (CCRF-CEM): 38.7% | inhibition in vivo at 20 mg/kg (Rattus norvegicus): 46.7%

Cc1cc(O)c(C2=NN(c3ccc(S(N)(=O)=O)cc3)C(c3ccc(Cl)cc3)C2)c(C)c1Cl (stereo not drawn)
GI50 (NCI/ADR-RES): 19.3 µM | TGI (NCI/ADR-RES): 76.4 µM | CC50 (NCI/ADR-RES): 100 µM | growth at 10 µM (UACC-257): 97.6% | growth at 10 µM (RPMI-8226): 25.5% | growth at 10 µM (SNB-75): 78.7% | growth at 10 µM (SF-295): 6.34% | GI50 (SK-OV-3): 27.4 µM | TGI (SK-OV-3): 90.8 µM | CC50 (SK-OV-3): 100 µM | growth at 10 µM (SN12C): 74.8% | growth at 10 µM (SK-MEL-2): 92.5% | growth at 10 µM (K562): 25% | growth at 10 µM (HCT-116): 41.1% | growth at 10 µM (SF-539): 91.6% | growth at 10 µM (NCI-H522): 39.8% | growth at 10 µM (NCI-H460): 47.1% | growth at 10 µM (DU-145): 75.2% | growth at 10 µM (U-251): 78.3% | growth at 10 µM (UACC-62): 64.8% | growth at 10 µM (NCI-H226): 88.8% | GI50 (OVCAR-8): 27.3 µM | TGI (OVCAR-8): 100 µM | CC50 (OVCAR-8): 100 µM | growth at 10 µM (NCI-H322M): 97.6% | GI50 (OVCAR-5 [2]): 19.4 µM | TGI (OVCAR-5 [2]): 38.1 µM | GI50 (SW-620): 18.4 µM | TGI (SW-620): 37.8 µM | growth at 10 µM (OVCAR-5 [1]): 96.8% | growth at 10 µM (HL-60(TB)): 24.1% | GI50 (HOP-62): 18.6 µM | TGI (HOP-62): 34.8 µM | growth at 10 µM (PC-3): 13.6% | growth at 10 µM (Malme-3M): 157% | growth at 10 µM (TK-10): 113% | growth at 10 µM (MOLT-4): 27.3% | growth at 10 µM (SF-268): 72.1% | growth at 10 µM (786-0): 95.6% | growth at 10 µM (HOP-92): 45.5% | growth at 10 µM (CCRF-CEM): 28% | inhibition in vivo at 20 mg/kg (Rattus norvegicus): 80%

Cc1cc(O)c(C2=NN(c3ccc(S(N)(=O)=O)cc3)C(c3ccc(N(C)C)cc3)C2)c(C)c1Cl (stereo not drawn)
GI50 (NCI/ADR-RES): 4.63 µM | TGI (NCI/ADR-RES): 17 µM | CC50 (NCI/ADR-RES): 4.35 µM | growth at 10 µM (UACC-257): 74.1% | growth at 10 µM (RPMI-8226): -37.6% | growth at 10 µM (SNB-75): 67.4% | growth at 10 µM (SF-295): 20.4% | GI50 (SK-OV-3): 7.75 µM | TGI (SK-OV-3): 20.6 µM | CC50 (SK-OV-3): 4.54 µM | growth at 10 µM (SN12C): 36.1% | growth at 10 µM (K562): 21% | growth at 10 µM (HCT-116): 55.1% | growth at 10 µM (SF-539): 79% | growth at 10 µM (NCI-H522): 57.7% | growth at 10 µM (NCI-H460): 3.35% | growth at 10 µM (DU-145): 49.3% | growth at 10 µM (U-251): 70% | growth at 10 µM (UACC-62): 53% | growth at 10 µM (NCI-H226): 106% | GI50 (OVCAR-8): 5.75 µM | TGI (OVCAR-8): 21.6 µM | CC50 (OVCAR-8): 66.4 µM | growth at 10 µM (NCI-H322M): 75.3% | GI50 (OVCAR-5 [2]): 12.3 µM | LC50 (OVCAR-5 [2]): 49.7 µM | TGI (OVCAR-5 [2]): 24.7 µM | GI50 (SW-620): 3.72 µM | LC50 (concentration killing 50% of cells) (SW-620): 50.2 µM | TGI (SW-620): 15.2 µM | growth at 10 µM (OVCAR-5 [1]): 95.2% | growth at 10 µM (HL-60(TB)): 18.4% | GI50 (HOP-62): 10.4 µM | LC50 (HOP-62): 52.1 µM | TGI (HOP-62): 23.3 µM | growth at 10 µM (PC-3): 12.1% | growth at 10 µM (Malme-3M): 103% | growth at 10 µM (TK-10): 80% | growth at 10 µM (MOLT-4): 14.3% | growth at 10 µM (SF-268): 61.7% | growth at 10 µM (786-0): 43.3% | growth at 10 µM (HOP-92): 21.3% | growth at 10 µM (CCRF-CEM): 11.6% | inhibition in vivo at 20 mg/kg (Rattus norvegicus): 33%
